Results: paper PMC12511262 (European Journal of Clinical Pharmacology, 2025)
Read-outs that look alike come from different tables or passages of the source.

Legend:
[1] = Population pharmacokinetic model of quizartinib (NONMEM v7.5) applied to the external evaluation dataset; type: in vivo, human; conditions: popPK estimates
Source text: Parameter values and covariate relationships were fixed according to those reported in the original publication, without any re-estimation or modification. Key model parameters were described at Table 2: Predictions were generated using recorded doses, sampling times, and covariate values from the evaluation dataset.

[2] = single oral dose of 60 mg [14C]-quizartinib, six healthy men; cited from earlier work
[3] = FLT3-ITD negative AML patients, steady state

SMILES: CC(C)(C)c1cc(NC(=O)Nc2ccc(-c3cn4c(n3)sc3cc(OCCN5CCOCC5)ccc34)cc2)no1 [quizartinib]
- bioavailability ([1]; human, plasma, oral, FLT3-ITD negative AML patients, steady state, read-out: F1 Bioavailability, Mean): 77%
- bioavailability ([1]; human, plasma, oral, FLT3-ITD negative AML patients, steady state, read-out: F1 Bioavailability, Median): 75%
- Vd ([1]; human, plasma, oral, FLT3-ITD negative AML patients, steady state, read-out: V2 Volume of distribution (central compartment), Mean): 219 L
- Vd ([1]; human, plasma, oral, FLT3-ITD negative AML patients, steady state, read-out: V2 Volume of distribution (central compartment), Median): 227 L
- half-life ([1]; human, plasma, oral, FLT3-ITD negative AML patients, steady state, read-out: t1/2 Half-life, Mean (converted)): 82.4 h
- half-life ([1]; human, plasma, oral, FLT3-ITD negative AML patients, steady state, read-out: t1/2 Half-life, Median (converted)): 82.5 h
- bioavailability ([1]; human, plasma, oral, median, read-out: bioavailability factor (F1), median): 75%
- clearance ([1]; human, plasma, oral, median, read-out: median clearance (CL) (converted)): 29.3 mL/min
- CL Clearance, Median [1, 3]: 1.76
- KA Absorption rate constant, Mean [1, 3]: 1.68
- KA Absorption rate constant, Median [1, 3]: 1.68
- KE Elimination rate constant, Mean [1, 3]: 0.01
- KE Elimination rate constant, Median [1, 3]: 0.01
- CL Clearance, Mean ([1]; FLT3-ITD negative AML patients, steady state, oral quizartinib 30 mg daily with food (one patient 60 mg)): 1.97
- V3 (peripheral compartment), median ([1]; median): 176.03 L
- V4, median ([1]; median): 39.30 L
- time of maximum blood concentration post-dosing [2]: four
